Results as given in US12195469B2, “Compounds having PDE9A inhibitory activity, and pharmaceutical uses thereof” (KOREA RESEARCH INSTITUTE OF CHEMICAL TECHNOLOGY, priority 2018, dated 2025).
pIC50: −log10 of the molar value.

Each compound was assayed against PDE9A (Homo sapiens (Human), UniProt O76083) (assay: PDE9A inhibition, fluorescence polarization assay (IMAP-FP screening express kit)). Details: 10 μM of the compound.
Sequence of PDE9A (O76083 whole entry): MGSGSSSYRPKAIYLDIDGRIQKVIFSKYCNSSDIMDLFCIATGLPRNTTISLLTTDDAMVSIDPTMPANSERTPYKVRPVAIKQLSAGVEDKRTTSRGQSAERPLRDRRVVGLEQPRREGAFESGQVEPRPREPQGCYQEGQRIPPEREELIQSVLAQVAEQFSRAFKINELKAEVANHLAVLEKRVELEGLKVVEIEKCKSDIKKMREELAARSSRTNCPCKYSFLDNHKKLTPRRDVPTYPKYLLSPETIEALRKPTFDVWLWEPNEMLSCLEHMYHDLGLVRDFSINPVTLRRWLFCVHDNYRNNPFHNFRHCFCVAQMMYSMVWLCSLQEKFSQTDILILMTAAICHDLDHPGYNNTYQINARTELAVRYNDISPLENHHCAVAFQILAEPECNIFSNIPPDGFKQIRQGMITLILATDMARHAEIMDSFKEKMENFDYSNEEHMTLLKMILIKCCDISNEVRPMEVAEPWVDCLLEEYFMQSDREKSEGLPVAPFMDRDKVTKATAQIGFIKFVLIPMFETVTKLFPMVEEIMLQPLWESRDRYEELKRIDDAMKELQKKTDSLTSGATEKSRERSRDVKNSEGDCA
Format: biochemical
Procedure: The inhibitory activity of the representative compounds according to the present invention against phosphodiesterase 9A was tested based on the polarization assay (IMAP-FP screening express kit) provided by MDS (MDS Analytical Technologies, Sunyvale, CA, USA). As a buffer solution, a reaction solution (a reaction solution containing 0.01% Tween 20 provided by MDS was diluted 5 times, then 5 mM DTT is added) and a polarization detection solution (binding solution A and B provided by MDS were mixed at a ratio of 3:1 and IMAP binding reagent 1/600 was added) were prepared. 100 μM of the substrate (Fl-cGMP substrate; MDS) and 3.6 μg/ml of the enzyme PDE9A (ab54113; abcam) were prepared. 3.6 μg/ml PDE9A and 100 μM substrate were diluted to 20 ng/ml (final reaction concentration: 5 ng/ml) and 400 nM (final reaction concentration: 100 nM), respectively. The buffer solution used for all dilution and preparation processes was 1× reaction solution with 1 mM DTT added, and the polarization detection solution was used to induce polarization at the end.
The prepared samples were dispensed on black microplates (Multiwell 384 well plates, #3573, Corning Life Sciences, Lowell, MA, USA) using a 16-channel pipette (multi 16-channel, Finnpipette, Thermo Scientific, Essex, UK). The total reaction volume per well is 20 μl. At this time, 10 μl of 2% DMSO, 5 μl of substrate solution, and 5 μl of reaction solution were used as a negative control, and 10 μl of 2% DMSO, 5 μl of substrate solution, and 5 μl of PDE9A solution were used as a positive control. As the experimental group, 10 μl of the compound prepared in Example, 5 μl of the substrate solution, and 5 μl of the PDE9A solution were used. After pretreatment between the compound and the enzyme was performed for about 10 minutes before the enzyme-substrate reaction, 5 μl of cGMP was added to induce the enzyme reaction. During the reaction, each compound, enzyme, and substrate occupied 50%, 25%, and 25% of the total volume, respectively, and they were prepared at high concentrations of 2, 4, and 4 times, respectively, immediately before addition. After the enzymatic reaction, it was shaken lightly for 1 minute and the enzyme reaction was induced at room temperature for 1 hour. Then, 60 μl of a polarization detection solution prepared in advance was added to induce polarization.
Nanoparticles composed of trivalent metal ions are mixed in the fluorescence detection solution, which combines with phosphoric acid expose by enzymatic reaction to increase the molecular weight and induce polarization. After leaving for 2 hours at room temperature, the polarization (Fluorescence Polarization, FP) value was measured using a multilabel counter (Envision, PerkinElmer, Turku, Finland) (emission wavelength: P-535 nm, S-535 nm, excitation wavelength: 480 nm), and the result was expressed as an IC50 value, which is the concentration of the compound that inhibited PDE9A by 50% in vitro (Table 2).
Work on `COc1ccc2nc(CSc3nc4c(cnn4-c4ccccc4)c(=O)[nH]3)oc2c1` [Example 35, 6-(((6-methoxybenzo[d]oxazol-2-yl)methyl)thio)-1-phenyl-1,5-dihydro-4H-pyrazolo[3,4-d]pyrimidin-4-one] yielded an inhibition at 10 µM of 83.6%.
In the case of `O=c1[nH]c(SCc2nc3ccc([N+](=O)[O-])cc3o2)nc2c1cnn2-c1ccccc1` [Example 28, 6-(((6-nitrobenzo[d]oxazol-2-yl)methyl)thio)-1-phenyl-1,5-dihydro-4H-pyrazolol[3,4-d]pyrimidin-4-one], the inhibition at 10 µM was 51.5%.
In the case of `O=c1[nH]c(SCc2nc3cc(Cl)c([N+](=O)[O-])cc3o2)nc2c1cnn2-c1ccccc1` [Example 31], the inhibition at 10 µM was 38.9%.
`O=c1[nH]c(SCc2nc3cc(-c4ccccc4)ccc3o2)nc2c1cnn2-c1ccccc1` [Example 25, 1-phenyl-6-(((5-phenylbenzo[d]oxazol-2-yl)methyl)thio)-1,5-dihydro-4H-pyrazolo[3,4-d]pyrimidin-4-one] showed an inhibition at 10 µM of 10.3%.

Same assay, conditions: Fl-cGMP substrate 100 nM, PDE9A 5 ng/ml, 1 hour at room temperature
Work on `Cc1ccc2nc(CSc3nc4c(cnn4C4CCC(F)(F)CC4)c(=O)[nH]3)oc2c1` [Example 13, 6-(((6-methylbenzo[d]oxazol-2-yl)methyl)thio)-1-(4,4-difluorocyclohexyl)-1,5-dihydro-4H-pyrazolo[3,4-d]pyrimidin-4-one] yielded a pIC50 of 7.92.
`COc1ccc2oc(CSc3nc4c(cnn4-c4ccccc4)c(=O)[nH]3)nc2c1` [Example 34, 6-(((5-methoxybenzo[d]oxazol-2-yl)methyl)thio)-1-phenyl-1,5-dihydro-4H-pyrazolo[3,4-d]pyrimidin-4-one] gave a pIC50 of 6.92.
Work on `CC(Sc1nc2c(cnn2C2CCC(F)(F)CC2)c(=O)[nH]1)c1nc2ccccc2o1` (stereo not drawn) [Example 20] yielded a pIC50 of 8.22.
`O=c1[nH]c(SCc2nc3cc([N+](=O)[O-])ccc3o2)nc2c1cnn2-c1ccccc1` [Example 29, 6-(((5-nitrobenzo[d]oxazol-2-yl)methyl)thio)-1-phenyl-1,5-dihydro-4H-pyrazolo[3,4-d]pyrimidin-4-one] showed a pIC50 of 5.62.
Work on `Cc1cccc2oc(CSc3nc4c(cnn4C4CCOCC4)c(=O)[nH]3)nc12` [Example 52, 6-(((4-methylbenzo[d]oxazol-2-yl)methyl)thio)-1-(tetrahydro-2H-pyran-4-yl)-1,5-dihydro-4H-pyrazolo[3,4-d]pyrimidin-4-one] yielded a pIC50 of 7.77.
For `O=c1[nH]c(SCc2nc3cc(Cl)c([N+](=O)[O-])cc3o2)nc2c1cnn2C1CCC(F)(F)CC1` [Example 40, 6-(((5-chloro-6-nitrobenzo[d]oxazol-2-yl)methyl)thio)-1-(4,4-difluorocyclohexyl)-1,5-dihydro-4H-pyrazolo[3,4-d]pyrimidin-4-one], the pIC50 was 5.78.
`O=c1[nH]c(SCc2nc3cc([N+](=O)[O-])ccc3o2)nc2c1cnn2C1CCOCC1` [Example 49, 6-(((5-nitrobenzo[d]oxazol-2-yl)methyl)thio)-1-(tetrahydro-2H-pyran-4-yl)-1,5-dihydro-4H-pyrazolo[3,4-d]pyrimidin-4-one] gave a pIC50 of 7.49.
Compound `Cc1ccc2nc(C(C)Sc3nc4c(cnn4C4CCSCC4)c(=O)[nH]3)oc2c1` (stereo not drawn) [Example 24, 6-((1-(6-methylbenzo[d]oxazol-2-yl)ethyl)thio)-1-(tetrahydro-2H-thiopyran-4-yl)-1,5-dihydro-4H-pyrazolo[3,4-d]pyrimidin-4-one] has a pIC50 of 8.30.
Compound `O=c1[nH]c(SCc2nc3c([N+](=O)[O-])cccc3o2)nc2c1cnn2C1CCC(F)(F)CC1` [Example 39, 1-(4,4-difluorocyclohexyl)-6-(((4-nitrobenzo[d]oxazol-2-yl)methyl)thio)-1,5-dihydro-4H-pyrazolo[3,4-d]pyrimidin-4-one] has a pIC50 of 7.11.
Work on `O=c1[nH]c(SCc2nc3ccccc3o2)nc2c1cnn2C1CCOCC1` [Example 1, 6-((benzo[d]oxazol-2-ylmethyl)thio)-1-(tetrahydro-2H-pyran-4-yl)-1,5-dihydro-4H-pyrazolo[3,4-d]pyrimidin-4-one] yielded a pIC50 of 8.30.
With `COc1ccc2oc(CSc3nc4c(cnn4C4CCC(F)(F)CC4)c(=O)[nH]3)nc2c1` [Example 45, 1-(4,4-difluorocyclohexyl)-6-(((5-methoxybenzo[d]oxazol-2-yl)methyl)thio)-1,5-dihydro-4H-pyrazolo[3,4-d]pyrimidin-4-one] the pIC50 was 8.10.
`O=c1[nH]c(SCc2nc3c([N+](=O)[O-])cccc3o2)nc2c1cnn2C1CCOCC1` [Example 50, 6-(((4-nitrobenzo[d]oxazol-2-yl)methyl)thio)-1-(tetrahydro-2H-pyran-4-yl)-1,5-dihydro-4H-pyrazolo[3,4-d]pyrimidin-4-one] showed a pIC50 of 6.89.
Compound `Cc1ccc2nc(CSc3nc4c(cnn4C4CCOCC4)c(=O)[nH]3)oc2c1` [Example 14, 6-(((6-methylbenzo[d]oxazol-2-yl)methyl)thio)-1-(tetrahydro-2H-pyran-4-yl)-1,5-dihydro-4H-pyrazolo[3,4-d]pyrimidin-4-one] has a pIC50 of 8.40.
`Cc1cc(C)c2oc(CSc3nc4c(cnn4C4CCC(F)(F)CC4)c(=O)[nH]3)nc2c1` [Example 44, 1-(4,4-difluorocyclohexyl)-6-(((5,7-dimethylbenzo[d]oxazol-2-yl)methyl)thio)-1,5-dihydro-4H-pyrazolo[3,4-d]pyrimidin-4-one] showed a pIC50 of 7.82.
`CC(C)(C)c1ccc2oc(CSc3nc4c(cnn4C4CCC(F)(F)CC4)c(=O)[nH]3)nc2c1` [Example 42, 6-(((5-(tert-butyl)benzo[d]oxazol-2-yl)methyl)thio)-1-(4,4-difluorocyclohexyl)-1,5-dihydro-4H-pyrazolo[3,4-d]pyrimidin-4-one] showed a pIC50 of 6.89.
For `CC(C)n1ncc2c(=O)[nH]c(SCc3nc4ccccc4o3)nc21` [Example 11, 6-((benzo[d]oxazol-2-ylmethyl)thio)-1-isopropyl-1,5-dihydro-4H-pyrazolo[3,4-d]pyrimidin-4-one], the pIC50 was 8.22.
With `CC(C)(C)c1ccc2oc(CSc3nc4c(cnn4C4CCOCC4)c(=O)[nH]3)nc2c1` [Example 53, 6-(((5-(tert-butyl)benzo[d]oxazol-2-yl)methyl)thio)-1-(tetrahydro-2H-pyran4-yl)-1,5-dihydro-4H-pyrazolo[3,4-d]pyrimidin-4-one] the pIC50 was 7.35.
Work on `O=c1[nH]c(SCc2nc3cc(Br)ccc3o2)nc2c1cnn2-c1ccccc1` [Example 7, 6-(((5-bromobenzo[d]oxazol-2-yl)methyl)thio)-1-phenyl-1,5-dihydro-4H-pyrazolo[3,4-d]pyrimidin-4-one] yielded a pIC50 of 7.00.
`O=c1[nH]c(SCc2nc3cc(Cl)ccc3o2)nc2c1cnn2-c1ccccc1` [Example 6, 6-(((5-chlorobenzo[d]oxazol-2-yl)methyl)thio)-1-phenyl-1,5-dihydro-4H-pyrazolo[3,4-d]pyrimidin-4-one] was tested, and the pIC50 was 6.72.
In the case of `O=c1[nH]c(SCc2nc3ccccc3o2)nc2c1cnn2-c1ccccc1` [Example 2, 6-((benzo[d]oxazol-2-ylmethyl)thio)-1-phenyl-1,5-dihydro-4H-pyrazolo[3,4-d]pyrimidin-4-one], the pIC50 was 7.31.
Work on `O=c1[nH]c(SCc2nc3cc(C(F)(F)F)ccc3o2)nc2c1cnn2C1CCC(F)(F)CC1` [Example 47, 1-(4,4-difluorocyclohexyl)-6-(((5-(trifluoromethyl)benzo[d]oxazol-2-yl)methyl)thio)-1,5-dihydro-4H-pyrazolo[3,4-d]pyrimidin-4-one] yielded a pIC50 of 6.92.
Work on `O=c1[nH]c(SCc2nc3cc(C(F)(F)F)ccc3o2)nc2c1cnn2-c1ccccc1` [Example 36, 1-phenyl-6-(((5-(trifluoromethyl)benzo[d]oxazol-2-yl)methyl)thio)-1,5-dihydro-4H-pyrazolo[3,4-d]pyrimidin-4-one] yielded a pIC50 of 4.47.
For `O=c1[nH]c(SCc2nc3ccccc3o2)nc2c1cnn2C1CCCCC1` [Example 12, 6-((benzo[d]oxazol-2-ylmethyl)thio)-1-cyclohexyl-1,5-dihydro-4H-pyrazolol[3,4-d]pyrimidin-4-one], the pIC50 was 8.40.
